Here are results for 5 molecules from article PMC6152105, “NMR Insights into the Structure-Function Relationships in the Binding of Melanocortin Analogues to the MC1R Receptor” (Molecules : A Journal of Synthetic Chemistry and Natural …, 2017).

“Also recorded” adds a separate entry of the source. Read-outs that look alike come from different tables or passages of the source. Numbered stars: 1 amine (or outer) side, 2 acyl side, 3 side chain; on linkers, the order of the positions; unused ones are H or OH. Bridge positions count the residues as written; N and C are the ends. Square brackets hold non-standard residues; d marks the D form. Peptide text beside a SMILES is read from it. nitrobenzoyl (NO2-C6H3-CO) = nitrobenzoyl unit acylating the N-terminal His, with its aryl carbon thioether-bonded to the Cys side-chain S; X1 = O=C(c1cc([N+](=O)[O-])ccc1[*:2])[*:1]

The target of experiment [1] is T1, MC1R (Mus musculus, UniProt Q01727).
T1 construct: endogenous in cells; host or cells: murine melanoma B16F1 cells
T1 sequence (Q01727 whole entry): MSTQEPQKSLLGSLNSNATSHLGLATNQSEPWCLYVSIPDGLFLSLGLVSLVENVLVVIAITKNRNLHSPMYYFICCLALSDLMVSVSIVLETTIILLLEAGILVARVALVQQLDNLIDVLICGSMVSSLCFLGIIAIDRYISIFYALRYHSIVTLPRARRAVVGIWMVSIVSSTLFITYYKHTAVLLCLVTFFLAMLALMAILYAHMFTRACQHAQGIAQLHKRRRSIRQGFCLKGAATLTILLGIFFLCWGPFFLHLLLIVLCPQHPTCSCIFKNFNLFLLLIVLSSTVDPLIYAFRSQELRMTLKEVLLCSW
As to the kind of experiment: Competitive binding assay with [125I]-NDP-α-MSH in B16F1 melanoma cells. Particulars: [125I]-[Nle4,DPhe7]-α-MSH radioligand, murine melanoma B16F1 cells, in triplicate, GraphPad Prism fit, read-out: MC1R binding affinity (IC50). How it is done: The binding affinities of the peptides CycN-K6 and CycN-K7 to MC1R were tested in a competitive binding assay using [^125I]-[Nle^4,DPhe^7]-α-MSH ([^125I]-NDP-α-MSH) as radioligand and murine melanoma B16F1 cells (Figure S1, Supplementary Materials), as previously described for other α-MSH analogues. Table 1 lists the IC50 values obtained for those two peptides, and for the 19-membered macrocyclic peptides PG10N and CycS-C6 [19, 20]. […] Therefore, a detailed structural comparison of these three peptides is required to understand the molecular basis for their binding to receptor MC1R.
NDP-α-MSH was radioiodinated as described. To determine the inhibitory concentration of 50 % (IC50) values for the α-MSH analogues, competitive binding assays with [^125I]NDP-α-MSH in B16F1 melanoma cells were carried out in triplicate following the previously described procedure. IC50 values were calculated from the plots of the percentage of [^125I]NDP-α-MSH bound to the cells vs. the concentrations of displacing peptides by using GraphPad Prism software (GraphPad Software Inc., La Jolla, CA, USA).

Experiment [2] has as its target T1, MC1R. To be noted: ref [20], cited from earlier work. The text has this: Table 1 Sequences, cycle size and MC1R binding affinities (IC50) of cyclic α-MSH analogues. | column: IC50 (nM) || Linear and cyclic analogues of the α-melanocyte stimulating hormone (α-MSH) targeting the human melanocortin receptor 1 (MC1R) are of pharmacological interest for detecting and treating melanoma. The central sequence of α-MSH (His-Phe-Arg-Trp) has been identified as being essential for receptor binding. To deepen current knowledge on the molecular basis for α-MSH bioactivity, we aimed to understand the effect of cycle size on receptor binding. To that end, we synthesised two macrocyclic isomeric α-MSH analogues, c[NH-NO2-C6H3-CO-His-DPhe-Arg-Trp-Lys]-Lys-NH2 (CycN-K6) and c[NH-NO2-C6H3-CO-His- ... || Aimed at enhancing the biological stability, potency and specificity of the endogenous ligand, a library of α-MSH analogues has been designed for imaging and therapeutic applications. […] However, replacement of the alkylthioaryl-bridge (Cy ... || (+ 1 further places)

Experiment [3] relates to MC1R. Particulars: 19-membered parent peptide; ref [19]; read-out: MC1R binding affinity (IC50); cited from earlier work. The text has this: Table 1 Sequences, cycle size and MC1R binding affinities (IC50) of cyclic α-MSH analogues. | column: IC50 (nM)
A further experiment relates to all human MCRs. Particulars: ref [19]; cited from earlier work. The text has this: Aimed at enhancing the biological stability, potency and specificity of the endogenous ligand, a library of α-MSH analogues has been designed for imaging and therapeutic applications. […] However, replacement of the alkylthioaryl-bridge (Cy ...

By IC50 is commonly meant the point on the concentration scale where inhibition reaches its midpoint. For `N=C(N)NCCC[C@@H]1NC(=O)[C@@H](Cc2ccccc2)NC(=O)[C@H](Cc2c[nH]cn2)NC(=O)c2cc([N+](=O)[O-])ccc2NCCCC[C@@H](C(=O)N[C@@H](CCCCN)C(N)=O)NC(=O)[C@H](Cc2c[nH]c3ccccc23)NC1=O` [CycN-K6, c[NH–NO2–C6H3–CO–His–DPhe–Arg–Trp–Lys]–Lys–NH2] (H[dF]RWKK-NH2; linker N-5 via X1), on MC1R [1], the IC50 is 155 ± 16 nM.
Turning to `N=C(N)NCCC[C@@H]1NC(=O)[C@@H](Cc2ccccc2)NC(=O)[C@H](Cc2c[nH]cn2)NC(=O)c2cc([N+](=O)[O-])ccc2NCCCC[C@@H](C(N)=O)NC(=O)[C@H](CCCCN)NC(=O)[C@H](Cc2c[nH]c3ccccc23)NC1=O` [CycN-K7, c[NH–NO2–C6H3–CO–His–DPhe–Arg–Trp–Lys–Lys]–NH2] (H[dF]RWKK-NH2; linker N-6 via X1), the IC50 on MC1R [1] was 495 ± 101 nM.
In the case of “c[S–NO2–C6H3–CO–His–DPhe–Arg–Trp–Cys]–Lys–NH2 (sidechain bridge or staple) ({nitrobenzoyl (NO2-C6H3-CO)}-H[dF]RWCK-NH2; thioether N-5) [CycS-C6, 19-membered cyclic analogue, previously reported by the authors]”, the IC50 in the experiment with MC1R [2] (previously reported by the authors, competitive binding, [125I]-NDP-α-MSH, B16F1 cells, read-out: MC1R binding affinity (IC50)) is 1770 ± 480 nM.
In the case of “c[S–NO2–C6H3–CO–His–DPhe–Arg–Trp–Cys]–Lys–NH2 (sidechain bridge or staple) [CycS-C6, 19-membered cyclic analogue, previously reported by the authors]”, at MC1R [2] (relative to parent PG10N, addition of C-terminal Lys), the “MC1R binding in words” value is “strongly decreases affinity to MC1R; also recorded: impaired binding”.
For the molecule “c[S–NO2–C6H3–CO–His–DPhe–Arg–Trp–Cys]–NH2 (sidechain bridge or staple) [PG10N, 19-membered alkylthioaryl-bridged macrocyclic α-MSH analogue]”, the half-maximal inhibitory concentration (IC50) with MC1R [3] was 3.7 ± 0.5 nM. In addition, in the experiment on all human MCRs, the agonist activity entry is listed as “potent full agonist for all human MCRs”.
